Data: patent US8178727B2, “Bis(arylmethylidene)acetone compound, anti-cancer agent, carcinogenesis-preventive agent, inhibitor of expression of Ki-Ras, ErbB2, c-Myc and Cycline D1, β-catenin-degrading agent, and p53 expression enhancer” (National University Corporation Tohoku University, priority 2005, dated 2012)

What was measured:
p53 = experiment: Western blot of p53 gene product expression; type: cell-based, human; conditions: FIG. 11
Experimental: (§1) Western-blot analysis was performed in the following manner:
(§2) After HCT116 cells were treated with each test compound, plate-adhered cells were recovered along with cells suspended in supernatants, centrifuged, and pelleted. The cells were then lysed with a lysis solution (40 mM Tris-HCl, 1% Triton X-100, 2 mM MgCl2) supplemented with 200-μM phenylmethanesulfonyl fluoride (PMSF), 500-μM benzamidine, and 1-μg/mL leupeptin. After the mixture was allowed to stand on ice for 30 minutes, it was centrifuged for 10 minutes at 4° C. and 10000×g, and supernatants were recovered. To the resultant supernatant was added equimolarly 2× sample buffer (0.1 M Tris-HCl (pH 6.8), 4% SDS, 20% glycerol, and 12% β-mercaptoethanol), and the mixture was shaken for 3 minutes at 4° C., then heated to 95° C. for 4 minutes, and then stored at −20° C. until use. The cell lysates were phoresed on 8% SDS-PAGE, transferred to a Hybond-P membrane (Amersham Biosciences), and made to react with various monoclonal antibodies described below.
(§3) Monoclonal antibodies: anti-actin antibody (A2066, Sigma Aldrich), anti-β-catenin antibody (6101 53, BD-transduction Laboratories), anti-p53 antibody (FL393: sc-6243HRP), anti-cyclin D1 antibody (M-20: sc-718), anti-c-Myc antibody (9E10: sc-40), anti-k-Ras-2B antibody (C-19: sc-521), and anti-c-ErbB2 antibody (A0485, DAKO Cytomation).
Curcumin is known to have activity in degrading p53 gene products. Degradation, genetic expression reduction, instability, or other deficiencies of the tumor suppressor gene p53 gene products, result in disadvantageous conditions as concerns cell malignancy and tendency to become cancerous.

SW620 cells = experiment: Cell growth inhibition (Cell Counting Kit 8, Wst-8), 96 h exposure; type: cell-based; conditions: Homo sapiens, SW-620, SW620 colon cancer cells
Experimental: (§4) The inhibitory efficacy of bis(arylmethylidene)-acetones on the development and growth of malignant tumor cells was examined. Curcumin and bis(arylmethylidene)-acetone compounds were dissolved in DMSO to obtain 50 mM compound solutions for storage. Sixteen human cancer cell lines (HCT116, DLD-1, SW620. LK87, PC3, MCF7, PK9, HuCCT-1, SH10TC, GCIY, G361, 8505c, HepG2, A431, ACHN, OVK18) were obtained from the Medical Cellular Resources Center of the Institute of Development, Aging, and Cancer at Tohoku University, Japan. These cells were cultured at 37° C. under 5% CO2 conditions using as a culture medium RPMI1640 (Sigma Aldrich) supplemented with 10% fetal bovine serum and kanamycin (Wako Pure Chemical Industries: final concentration, […]).
(§5) Three human colon-cancer cell lines (DLD-1, HCT116, SW620) were used in screening for cell growth inhibitory efficacy. The test compounds (bis(arylmethylidene)-acetones) were added to the culture media at the target concentrations, and exposure to the compounds was then continued for 96 hours in order to investigate not only acute cell damages but also effects on the cells, involving intracellular metabolic responses and others. The cell growth inhibitory efficacy was then evaluated with Cell Counting Kit 8 (Wst-8 Test, Dojindo Laboratories, Japan). In this analysis method, tetrazolium salt Wst-8 is degraded by reduced form nicotinamide adenine dinucleotide (nicotinamide adenine dinucleotide H; NADH). The activity of NADH is maintained only inside viable cells, and Wst-8 becomes colored upon degradation. The optical absorbance at 450 nm is measured, whereby the number of viable cells can be indirectly estimated.
(§6) Each cell line was placed on a 96-well microtiter plate at a cell density of 2500 to 5000 cells/100 μL/well in accordance with the growth rate of the cell line. After cell cultivation for 24 hours, […] medium containing each compound was added. The final concentration of each test compound is 0, 0.1, 0.25, 0.5, 1, 2.5, 5, 10, 25, 50, and 100 μM (11 levels). The maximum final concentration of DMSO used as a solvent was 1%. After culturing for 96 hours, the medium was aspirated away, followed by washing with PBS. Next, 100 μL of a medium containing a solution of Cell Counting Kit 8 at 1/10 (v/v) was added. Culturing was then continued for one hour. Thereafter, each optical absorbance at 450 nm (620 nm background) was measured with an MPR-A4i microplate reader (Tosoh, Japan). A curve of the inhibition of cell growth was constructed using the measured optical absorbances.

HCT116 cells = experiment: as above; type: cell-based; conditions: Homo sapiens, HCT-116, HCT116 colon cancer cells
Experimental: as §4, §5, §6

DLD-1 cells [1] = experiment: as above; type: cell-based; conditions: Homo sapiens, DLD-1 colon cancer cells
Experimental: as §4, §5, §6

colon cancer cells = conditions: Non-Patent Document 1; cited from earlier work
DLD-1 cells [2] = experiment: Cell cycle / apoptosis-inducing activity by flow cytometry (FACScan); type: cell-based, human
Experimental: The activity of test compounds in cell cycle (apoptosis-inducing activity) was analyzed with a flow cytometer (FACScan). […] The cells attached to the plates are then harvested together with the cells suspended in the medium, centrifuged, and pelleted, followed by removal of supernatants. The collected cells were washed twice with PBS, then fixed with 70% ethanol for 30 minutes or more at 4° C., then washed with PBS once more, suspended in PBS supplemented with RNaseA (final concentration: 50 μg/mL; Qiagen), and incubated for 20 minutes at 37° C. Centrifugation was performed, and the supernatant was removed, after which the nuclei were stained using a solution of propidium iodide ([…]). Filtration was then performed using a nylon mesh having a pore size of 50 μm, and a DNA histogram was analyzed with a FACScan flow cytometer ([…]). The cellular fractions of subG1 phase, G0/G1 phase, S phase, and G2/M phase were determined by calculation using macCycle (Phoenix Flow Systems).

β-catenin [3] = conditions: Non-Patent Document 1; cited from earlier work
[4] = cited from earlier work
β-catenin [5] = experiment: Western blot of β-catenin degrading activity; type: cell-based, human
Experimental: Western-blot analysis was used to investigate effects on the expression of oncogene products, ErbB2, c-Myc, and Cyclin D1, whose activity is enhanced in a variety of cancer cells, and to investigate the activity of degrading β-catenin, which plays an important role in the initial stages of carcinogenesis to the formation and development of tumors.
as §1, §2, §3

colon-cancer cells = experiment: Growth inhibition compared with anti-cancer agents 5-FU, CPT11, CDDP (FIG. 6); type: cell-based, human
Experimental: as §4, §6
Stored solutions of three anti-cancer agents: 5-FU, CDDP, and CPT11, prepared beforehand (1 mM), were suitably diluted prior to use, and also added to culture media.

[6] = tested on: melanoma and breast cancer cells; conditions: Non-Patent Document 2; cited from earlier work

Structure (SMILES)	transient drop in expression of p53 6 to 12 hours after administration (p53)	IC50 (SW620 cells)	IC50 (HCT116 cells)	IC50 (DLD-1 cells [1])	concentration inhibiting the growth of colon cancer cells (colon cancer cells)	sub-G1 fraction (apoptosis-induced cell death) (DLD-1 cells [2]; curcumin (20 μM in method))	concentration degrading β-catenin (β-catenin [3])	water-solubility [4]	concentration at which β-catenin degrading activity is displayed (β-catenin [5]; FIG. 9)	growth inhibitory activity relative to 5-FU, CPT11 and CDDP (colon-cancer cells)	efficacy relative to curcumin [6]	concentration arresting the cell cycle at the G2/M phase (DLD-1 cells [2]; DLD-1 cells, flow cytometry)	concentration at which β-catenin degrading activity is displayed (β-catenin [5]; FIG. 9, listed as BDMPP)
COc1cc(/C=C/C(=O)CC(=O)/C=C/c2ccc(O)c(OC)c2)ccc1O [curcumin, (1E,6E)-1,7-bis(4-hydroxy-3-methoxyphenyl)-1,6-heptadiene-3,5-dione, reference compound]	transient drop	10 µM	8 µM	8 µM	20 µM	not substantially observed	15 µM	poor	20.0 µM				
COc1ccc(C=CC(=O)C=Cc2ccc(OC)c(OC)c2)cc1OC [GO-035, 1,5-Bis(3,4-dimethoxyphenyl)-penta-1,4-dien-3-one, reference compound]		3.5 µM	2.5 µM	2 µM					5.0 µM	much stronger	1.3 to 2.1 times	5 µM	5 µM
